Measurements taken from patent US6121287A, “Quinoline derivatives” (Active Biotech AB, priority 1999, dated 2000).
Like-named read-outs stand apart in the source and are kept apart here.

Key:
[1] = test system: acute experimental autoimmune encephalomyelitis (aEAE); assay: inhibition of acute experimental autoimmune encephalomyelitis (aEAE) in mice; assay type: in vivo, mice (STUN female); settings: for % aEAE Inhibition: percent inhibition of clinical scores vs saline treated controls
[2] = test system: foetuses of pregnant female rats; assay: Teratogenic Effects in the Rat; assay type: in vivo; settings: 6 mg/kg/day (dose given for the N-methyl-N-phenyl compound), subcutaneous, day 8 to 14 of pregnancy
Excerpt: Teratogenic Effects in the Rat
The compounds were administrated subcutaneously to female rats during pregnancy, i.e., day 8 to 14 of pregnancy. The rats were caesarean sectioned and necropsied on day 20 after fertilization. The foetuses were examined for external and internal abnormalities.

[3] = test system: foetuses of pregnant female rats; settings: rat; background statement; cited from earlier work
beagle dogs = settings: different breeds of beagle dogs; cited from earlier work
multiple sclerosis = settings: cited from earlier work
cell-mediated immunity = settings: cited from earlier work

In the case of `CCN(C(=O)c1c(O)c2c(SC)cccc2n(C)c1=O)c1ccccc1` [Compound A, N-ethyl-N-phenyl-1,2-dihydro-4-hydroxy-5-thiomethyl-1-methyl-2-oxo-quinoline-3-carboxamide], the “% aEAE Inhibition” value ([1]; 0.04 mg/kg p.o.) is reported as 28%, the “% aEAE Inhibition” value ([1]; 0.2 mg/kg p.o.) is reported as 49% and the teratogenic effect [2] is reported as “non-teratogenic”.
For `CSc1cccc2c1c(O)c(C(=O)N(C)c1ccc(F)cc1F)c(=O)n2C` [Compound B, N-methyl-N-(2,4-difluoro-phenyl)-1,2-dihydro-4-hydroxy-5-thiomethyl-1-methyl-2-oxo-quinoline-3-carboxamide], the “% aEAE Inhibition” value ([1]; 0.2 mg/kg p.o.) was 67%, the “% aEAE Inhibition” value ([1]; 1 mg/kg p.o.) was 97% and the teratogenic effect [2] was “non-teratogenic”.
For `CCN(C(=O)c1c(O)c2cc(SC)ccc2n(C)c1=O)c1ccccc1` [Compound C, N-ethyl-N-phenyl-1,2-dihydro-4-hydroxy-6-thiomethyl-1-methyl-2-oxo-quinoline3-carboxamide], the “% aEAE Inhibition” value ([1]; 0.04 mg/kg p.o.) was 0% and the “% aEAE Inhibition” value ([1]; 0.2 mg/kg p.o.) was 23%.
For `CSc1ccc2c(c1)c(O)c(C(=O)N(C)c1ccc(F)cc1F)c(=O)n2C` [Compound D, N-methyl-N-(2,4difluoro-phenyl)-l,2-dihydro-4-hydroxy-6-thiomethyl-1-methyl-2-oxo-quinoline-3-carboxamide], the “% aEAE Inhibition” value ([1]; 0.2 mg/kg p.o.) was 0% and the “% aEAE Inhibition” value ([1]; 1 mg/kg p.o.) was 66%.
In the case of `CSc1cccc2c1c(O)c(C(=O)N(C)c1ccccc1)c(=O)n2C` [N-methyl-N-phenyl-1,2-dihydro-4-hydroxy-5-thiomethyl-1-methyl-2-oxo-quinoline-3-carboxamide], the teratogenic effect [2] is reported as “teratogenic”.
For `CN(C(=O)c1c(O)c2ccccc2n(C)c1=O)c1ccccc1` [Roquinimex, roquinimex], the “inhibition of aEAE (treatment control)” value ([1]; at ≥5 mg/kg, mice) is given as “more than 50%”, the teratogenic effect [3] is given as “teratogenic in the rat” and the “Beagle Pain Syndrome (BPS) induction” value (beagle dogs) is given as “induce the Beagle Pain Syndrome (BPS)”. The “clinical efficacy in conditions associated with MS” value (multiple sclerosis; clinical trials comparing roquinimex to placebo) was “hold promise in the treatment of conditions associated with MS”, the “dose-limiting side effects in man” value (multiple sclerosis; man) was “induces dose-limiting side effects in man, e.g., a flu-like syndrome” and the immunomodulatory activities (cell-mediated immunity) was “multiple immunomodulatory activities not accompanied with general immunosuppression”.
